From patent publication US20250002453A1, “PHARMACEUTICALLY ACCEPTABLE SALT OF ELIGLUSTAT AND CRYSTAL FORM THEREOF” (SPEROGENIX (SHANGHAI) MEDTECH CO., LTD., priority 2021, published 2025)
Entries after “also recorded” stand apart in the source; their conditions may differ. Read-outs that look alike come from different tables or passages of the source.

Columns and labels:
[1] = Solid state stability assessment (XRPD and HPLC after exposure at 25° C./60% RH and 40° C./75% RH); type: physicochemical
Experimental: XRPD patterns are collected on an X-ray powder diffraction analyzer produced by PANalytacal, and Table 2 lists the XRPD parameters.
(§1) The purity test, dynamic solubility and stability test in the experiment are completed by Agilent 1260 high performance liquid chromatography. The salt-forming molar ratio test of ions is completed by ion chromatography test.
After leaving the crystalline form C of 1,5-naphthalene disulfonate in the exposure evaporation at 25° C./60% RH and 40° C./75% RH for 1 week, […] and 4 weeks. The physical and chemical stability of the sample was tested by XRPD and HPLC, and the stability data of crystalline form A of tartrate and free crystalline form A at 1 week, 2 weeks and 4 weeks were used as a reference. At the same time, the stability of crystalline form B of 1,5-naphthalene disulfonate and crystalline form A of oxalate was tested under the conditions of 25° C./60% RH and 40° C./75% RH for 1 week.

[2] = Evaluation of hygroscopicity by Dynamic Vapor Sorption (DVS); type: physicochemical; conditions: for Transformation of crystalline form: after DVS test
Experimental: Dynamic Vapor Sorption (DVS) profiles are collected on the DVS Intrinsic of SMS (Surface Measurement Systems). Relative humidity at 25° C. is corrected with the deliquescent points of LiCl, Mg(NO3)2 and KCl.
The hygroscopicity of crystalline form B/crystalline form C of 1,5-naphthalene disulfonate, crystalline form A of oxalate, crystalline form A of tartrate and free crystalline form A were evaluated by DVS.

[3] = Dynamic solubility test (water, SGF, FaSSIF, FeSSIF; 37° C.; 1, 4 and 24 hours); type: physicochemical; conditions: for S: Solubility (free concentration) / pH (of filtrate) / FC: Crystalline form transformation: 37° C.; for FC: Crystalline form transformation: XRPD of residual solid
Experimental: 0.2 g sodium chloride and 0.1 g Triton X-100 are weighted into a 100 mL volumetric flask. Pure water is added for dissolution, stirred until the solid is completely dissolved, about 1.632 mL hydrochloric acid (1M) is added, and the pH is adjusted to 1.8 with 1M hydrochloric acid or 1M sodium hydroxide, and finally it is diluted to volume with pure water.
0.34 g sodium dihydrogen phosphate (NaH2PO4, anhydrous), 0.042 g sodium hydroxide, and 0.62 g sodium chloride are weighted respectively into a 100 mL volumetric flask, about 48 mL pure water is added for dissolution, the pH is adjusted to 6.5 with 1M hydrochloric acid or 1M sodium hydroxide, and finally it is diluted to volume with pure water to obtain a stock solution. A 50-mL volumetric flask is taken. 0.11 g of SIF powder is added, and dissolved with the above stock solution, then diluted to volume. The powder is completely dissolve by ultrasound.
as §1
The dynamic solubility of crystalline form B/crystalline form C of 1,5-naphthalene disulfonate, crystalline form A of oxalate, crystalline form A of tartrate and free crystalline form A in water and three biological solvents were evaluated.
After sampling at each time point, the samples were centrifugally filtered (0.45 μm PTFE filter head), the free salt concentration and pH value in the filtrate were measured, and the solid samples after centrifugation were tested for XRPD.

[4] = as described in WO2011066352A1; cited from earlier work
[5] = plasma concentration of eliglustat 500 ng/ml; cited from earlier work
[6] = 1 week of exposure at 25° C./60% RH and 40° C./75% RH
[7] = left exposed for 4 weeks at 25° C./60% RH and 40° C./75% RH

Structure (SMILES)	Hygroscopic weight gain at 25° C./80% RH ([2]; DVS) [%]	Transformation of crystalline form [2]	S: Solubility (free concentration) ([3]; FaSSIF, 1 hr) [µg/mL]	pH (of filtrate) ([3]; FaSSIF, 1 hr)	S: Solubility (free concentration) ([3]; FaSSIF, 4 hrs) [µg/mL]	pH (of filtrate) ([3]; FaSSIF, 4 hrs)	S: Solubility (free concentration) ([3]; FaSSIF, 12 hrs) [µg/mL]	pH (of filtrate) ([3]; FaSSIF, 12 hrs)	S: Solubility (free concentration) ([3]; H2O, 1 hr) [µg/mL]	pH (of filtrate) ([3]; H2O, 1 hr)	FC: Crystalline form transformation ([3]; H2O, 1 hr)	S: Solubility (free concentration) ([3]; H2O, 4 hrs) [µg/mL]	pH (of filtrate) ([3]; H2O, 4 hrs)	FC: Crystalline form transformation ([3]; H2O, 4 hrs)	S: Solubility (free concentration) ([3]; H2O, 12 hrs) [µg/mL]	pH (of filtrate) ([3]; H2O, 12 hrs)	FC: Crystalline form transformation ([3]; H2O, 12 hrs)	S: Solubility (free concentration) ([3]; SGF, 1 hr) [µg/mL]	pH (of filtrate) ([3]; SGF, 1 hr)	S: Solubility (free concentration) ([3]; SGF, 4 hrs) [µg/mL]	further results
CCCCCCCC(=O)N[C@H](CN1CCCC1)[C@H](O)c1ccc2c(c1)OCCO2.CCCCCCCC(=O)N[C@H](CN1CCCC1)[C@H](O)c1ccc2c(c1)OCCO2.O=S(=O)(O)c1cccc2c(S(=O)(=O)O)cccc12	0.59	Change to crystalline	2700	6.52	2700	6.51	2600	6.52	1900	7.67	Yes	2000	7.67	Yes	2000	7.75	Yes	2700	1.84	2500	decrease in HPLC purity [1, 6]: no decrease in HPLC purity was observed; change in crystalline form (XRPD) ([1]; left exposed for a week at 40° C./75% RH): partially transformed into the crystalline form C; Transformation of crystalline form ([2]; listed as crystalline form B of 1,5-naphthalene disulfonate): changed to crystalline form C; hygroscopic weight gain (in words) ([2]; humidity higher than 80% RH at 25° C.): significant hygroscopic weight gain; FC: Crystalline form transformation ([3]; FaSSIF, 1 hr): Yes; FC: Crystalline form transformation ([3]; FaSSIF, 4 hrs): Yes; FC: Crystalline form transformation ([3]; FaSSIF, 12 hrs): Yes; FC: Crystalline form transformation ([3]; SGF, 1 hr): Yes; pH (of filtrate) ([3]; SGF, 4 hrs): 1.75; FC: Crystalline form transformation ([3]; SGF, 4 hrs): Yes; S: Solubility (free concentration) ([3]; SGF, 12 hrs): 2300 µg/mL; pH (of filtrate) ([3]; SGF, 12 hrs): 1.77; FC: Crystalline form transformation ([3]; SGF, 12 hrs): Yes
CCCCCCCC(=O)NC(CN1CCCC1)C(O)c1ccc2c(c1)OCCO2.O=C(O)C(O)C(O)C(=O)O (stereo not drawn) [1:1 tartrate salt]	–	–	–	–	–	–	–	–	–	–	–	–	–	–	–	–	–	–	–	–	hygroscopicity (in words) [4]: too hygroscopic for formulation
CCCCCCCC(=O)N[C@H](CN1CCCC1)[C@H](O)c1ccc2c(c1)OCCO2.O=S(=O)(O)c1cccc2c(S(=O)(=O)O)cccc12 [Eliglustat 1,5-naphthalene disulfonate]	–	–	–	–	–	–	–	–	–	–	–	–	–	–	–	–	–	–	–	–	hygroscopicity compared with eliglustat hemitartrate crystalline form A ([2]; comparison in words): lower hygroscopicity over eliglustat hemitartrate crystalline form A; solubility difference in water and simulated gastric fluid ([3]; water versus SGF, in words): small
CCCCCCCC(=O)N[C@H](CN1CCCC1)[C@H](O)c1ccc2c(c1)OCCO2 [Free crystalline form A, reference compound]	0.01	did not change in crystalline form; also recorded: No change	4400	7.31	4400	7.29	4200	7.30	120	9.24	No	130	9.03	No	170	8.80	No	6600	7.27	6700	change in crystalline form (XRPD) [1, 7]: no change in crystalline form; decrease in HPLC purity [1, 7]: no change in crystalline form or decrease in HPLC purity was observed; hygroscopicity (in words) ([2]; DVS): almost no hygroscopicity; FC: Crystalline form transformation ([3]; FaSSIF, 1 hr): No; FC: Crystalline form transformation ([3]; FaSSIF, 4 hrs): No; FC: Crystalline form transformation ([3]; FaSSIF, 12 hrs): No; FC: Crystalline form transformation ([3]; SGF, 1 hr): No; pH (of filtrate) ([3]; SGF, 4 hrs): 7.26; FC: Crystalline form transformation ([3]; SGF, 4 hrs): No; S: Solubility (free concentration) ([3]; SGF, 12 hrs): 6500 µg/mL; pH (of filtrate) ([3]; SGF, 12 hrs): 7.30; FC: Crystalline form transformation ([3]; SGF, 12 hrs): No
CCCCCCCC(=O)N[C@H](CN1CCCC1)[C@H](O)c1ccc2c(c1)OCCO2 [eliglustat]	–	–	–	–	–	–	–	–	–	–	–	–	–	–	–	–	–	–	–	–	predicted mean increase in PR interval [5]: 22 (26) milliseconds; predicted mean increase in QRS interval [5]: 7 (10) milliseconds; predicted mean increase in QTcF interval [5]: 13 (19) milliseconds
CCCCCCCC(=O)N[C@H](CN1CCCC1)[C@H](O)c1ccc2c(c1)OCCO2.Cl [hydrochloride salt]	–	–	–	–	–	–	–	–	–	–	–	–	–	–	–	–	–	–	–	–	hygroscopicity (in words) [4]: too hygroscopic for formulation

Continued, in another order:

Hygroscopic weight gain at 25° C./80% RH ([2]; DVS) [%]	Transformation of crystalline form [2]	S: Solubility (free concentration) ([3]; FaSSIF, 1 hr) [µg/mL]	pH (of filtrate) ([3]; FaSSIF, 1 hr)	S: Solubility (free concentration) ([3]; FaSSIF, 4 hrs) [µg/mL]	pH (of filtrate) ([3]; FaSSIF, 4 hrs)	S: Solubility (free concentration) ([3]; FaSSIF, 12 hrs) [µg/mL]	pH (of filtrate) ([3]; FaSSIF, 12 hrs)	S: Solubility (free concentration) ([3]; H2O, 1 hr) [µg/mL]	pH (of filtrate) ([3]; H2O, 1 hr)	FC: Crystalline form transformation ([3]; H2O, 1 hr)	S: Solubility (free concentration) ([3]; H2O, 4 hrs) [µg/mL]	pH (of filtrate) ([3]; H2O, 4 hrs)	FC: Crystalline form transformation ([3]; H2O, 4 hrs)	S: Solubility (free concentration) ([3]; H2O, 12 hrs) [µg/mL]	pH (of filtrate) ([3]; H2O, 12 hrs)	FC: Crystalline form transformation ([3]; H2O, 12 hrs)	S: Solubility (free concentration) ([3]; SGF, 1 hr) [µg/mL]	pH (of filtrate) ([3]; SGF, 1 hr)	S: Solubility (free concentration) ([3]; SGF, 4 hrs) [µg/mL]	Structure (SMILES)	further results
0.33	No change	2900	6.48	2800	6.48	3000	6.49	2000	7.39	No	1900	7.33	No	2000	7.45	No	2600	1.80	2400	CCCCCCCC(=O)N[C@H](CN1CCCC1)[C@H](O)c1ccc2c(c1)OCCO2.CCCCCCCC(=O)N[C@H](CN1CCCC1)[C@H](O)c1ccc2c(c1)OCCO2.O.O.O=S(=O)(O)c1cccc2c(S(=O)(=O)O)cccc12	change in crystalline form (XRPD) [1, 7]: no change in crystalline form; decrease in HPLC purity [1, 7]: no change in crystalline form or decrease in HPLC purity was observed; hygroscopic weight gain at 25° C./80% RH ([2]; DVS): 0.33 wt %; Transformation of crystalline form ([2]; listed as crystalline form C of 1,5-naphthalene disulfonate): no change in crystalline form; FC: Crystalline form transformation ([3]; FaSSIF, 1 hr): No; FC: Crystalline form transformation ([3]; FaSSIF, 4 hrs): No; FC: Crystalline form transformation ([3]; FaSSIF, 12 hrs): No; FC: Crystalline form transformation ([3]; SGF, 1 hr): No; pH (of filtrate) ([3]; SGF, 4 hrs): 1.88; FC: Crystalline form transformation ([3]; SGF, 4 hrs): No; S: Solubility (free concentration) ([3]; SGF, 12 hrs): 2600 µg/mL; pH (of filtrate) ([3]; SGF, 12 hrs): 1.89; FC: Crystalline form transformation ([3]; SGF, 12 hrs): No
7.64	No change	≥8100	6.52	≥8200	6.48	≥8100	6.47	6800	7.07	No	7800	7.51	No	8000	7.30	No	≥8400	2.19	≥8500	CCCCCCCC(=O)N[C@H](CN1CCCC1)[C@H](O)c1ccc2c(c1)OCCO2.CCCCCCCC(=O)N[C@H](CN1CCCC1)[C@H](O)c1ccc2c(c1)OCCO2.O=C(O)C(=O)O [Crystalline form A of oxalate]	decrease in HPLC purity [1, 6]: no decrease in HPLC purity was observed; hygroscopic weight gain at 25° C./80% RH ([2]; DVS): 7.64 wt %; Transformation of crystalline form ([2]; listed as crystalline form A of oxalate): no change in crystalline form; weight loss (in words) ([2]; humidity lower than 10% RH): Significant weight loss; pH (of filtrate) ([3]; SGF, 4 hrs): 2.17; S: Solubility (free concentration) ([3]; SGF, 12 hrs): ≥8200 µg/mL; pH (of filtrate) ([3]; SGF, 12 hrs): 2.05
